{"source": "patent US7589173B2", "about": "“Methods for diagnosing cancer and decreasing metastasis by cancer cells” (The Scripps Research Institute, priority 2003, dated 2009)", "tested_on": "SIMA135 tyrosine phosphorylation", "settings": "PP2 50 μM, 30 minutes at 37° C, serum free DMEM", "protocol": "Cell lysates, serum free conditioned media and immunoprecipitated proteins were separated by electrophoresis through 8% SDS-polyacrylamide gels then transferred to nitrocellulose membranes (Millipore). […] Following extensive washing membranes were incubated for 2 hr at room temperature with goat anti-mouse IgG (0.16 μg/ml, Pierce, Rockford, Il) and immunoreactive bands detected by enhanced chemiluminescence (Pierce).\nFor analysis of the basal level of tyrosine phosphorylation of SIMA135, subconfluent cultures of HEp3 and HeLa (as negative control) cells were incubated at 37° C. for 30 min with serum free DMEM containing 50 mM NaF and 1 mM Na3VO4 then washed with ice cold PBS. For inhibition of Src kinase family phosphorylation, HEp3 cells were cultured in serum free DMEM without NaF and Na3VO4 for 30 minutes at 37° C. with PP2 (50 μM). Cells were then lysed in ice cold buffer containing 50 mM Tris (pH 7.4), 150 mM NaCl, 1% Triton X-100, 1 mM phenylmethylsulfonyl fluoride, 1 mM benzamidine, 25 μg/ml aprotinin, 25 μg/ml leupeptin, 50 mM NaF and 1 mM Na3VO4. Insoluble material was removed by centrifugation at 14000 rpm for 10 min. […] Cells lysates were collected as described above."}
{"compound": "CC(C)(C)n1nc(-c2ccc(Cl)cc2)c2c(N)ncnc21", "note": "[PP2]", "values": [{"measurement": "reduction in the level of SIMA135 tyrosine phosphorylation compared to untreated HEp3 cells", "value": "~75", "unit": "%"}]}
